In publication PMC7806630, “Molecular basis of the interaction of the human tyrosine phosphatase PTPN3 with the hepatitis B virus core protein” (Scientific Reports, 2021):

Key:
DLG1_1 = assay: holdup assay, DLG1_1 PDZ domain; assay type: binding, human; details: biotinylated PBM-HBc peptide, in duplicates, BI > 0.2 significant
SNTB1 = assay: holdup assay, SNTB1 PDZ domain; assay type: binding, human; details: biotinylated PBM-HBc peptide, in duplicates, BI > 0.2 significant
DLG4_3 = assay: holdup assay, DLG4_3 PDZ domain; assay type: binding, human; details: biotinylated PBM-HBc peptide, in duplicates, BI > 0.2 significant
STXB4 = assay: holdup assay, STXB4 PDZ domain; assay type: binding, human; details: biotinylated PBM-HBc peptide, in duplicates, BI > 0.2 significant
DLG4_1 = assay: holdup assay, DLG4_1 PDZ domain; assay type: binding, human; details: biotinylated PBM-HBc peptide, in duplicates, BI > 0.2 significant
MAGI3 = assay: holdup assay, MAGI3 PDZ domain; assay type: binding, human; details: biotinylated PBM-HBc peptide, in duplicates, BI > 0.2 significant
DLG4_2_ = assay: holdup assay, DLG4_2_ PDZ domain; assay type: binding, human; details: biotinylated PBM-HBc peptide, in duplicates, BI > 0.2 significant
SYNJ2BP = assay: holdup assay, SYNJ2BP PDZ domain; assay type: binding, human; details: biotinylated PBM-HBc peptide, in duplicates, BI > 0.2 significant
PTPN4 = assay: holdup assay, PTPN4 PDZ domain; assay type: binding, human; details: biotinylated PBM-HBc peptide, in duplicates, BI > 0.2 significant
GIPC1 = assay: holdup assay, GIPC1 PDZ domain; assay type: binding, human; details: biotinylated PBM-HBc peptide, in duplicates, BI > 0.2 significant
MPDZ = assay: holdup assay, MPDZ PDZ domain; assay type: binding, human; details: biotinylated PBM-HBc peptide, in duplicates, BI > 0.2 significant
DLG3_2 = assay: holdup assay, DLG3_2 PDZ domain; assay type: binding, human; details: biotinylated PBM-HBc peptide, in duplicates, BI > 0.2 significant
DLG2_1 = assay: holdup assay, DLG2_1 PDZ domain; assay type: binding, human; details: biotinylated PBM-HBc peptide, in duplicates, BI > 0.2 significant
DLG2_2 = assay: holdup assay, DLG2_2 PDZ domain; assay type: binding, human; details: biotinylated PBM-HBc peptide, in duplicates, BI > 0.2 significant
MAST2 = assay: holdup assay, MAST2 PDZ domain; assay type: binding, human; details: biotinylated PBM-HBc peptide, in duplicates, BI > 0.2 significant
DLG1_3 = assay: holdup assay, DLG1_3 PDZ domain; assay type: binding, human; details: biotinylated PBM-HBc peptide, in duplicates, BI > 0.2 significant
SNX27 = assay: holdup assay, SNX27 PDZ domain; assay type: binding, human; details: biotinylated PBM-HBc peptide, in duplicates, BI > 0.2 significant
SNTB2 = assay: holdup assay, SNTB2 PDZ domain; assay type: binding, human; details: biotinylated PBM-HBc peptide, in duplicates, BI > 0.2 significant
[1] = tested on: human PDZ domains (the PDZome); assay: holdup assay, PDZome profile; assay type: binding; details: holdup assay against human PDZome, threshold BI = 0.2
TJP2 = assay: holdup assay, TJP2 PDZ domain; assay type: binding, human; details: biotinylated PBM-HBc peptide, in duplicates, BI > 0.2 significant
MAGI1 = assay: holdup assay, MAGI1 PDZ domain; assay type: binding, human; details: biotinylated PBM-HBc peptide, in duplicates, BI > 0.2 significant
InaDl = assay: holdup assay, InaDl PDZ domain; assay type: binding, human; details: biotinylated PBM-HBc peptide, in duplicates, BI > 0.2 significant
SCRIB = assay: holdup assay, SCRIB PDZ domain; assay type: binding, human; details: biotinylated PBM-HBc peptide, in duplicates, BI > 0.2 significant
SIPA1L2 = assay: holdup assay, SIPA1L2 PDZ domain; assay type: binding, human; details: biotinylated PBM-HBc peptide, in duplicates, BI > 0.2 significant
GIPC2 = assay: holdup assay, GIPC2 PDZ domain; assay type: binding, human; details: biotinylated PBM-HBc peptide, in duplicates, BI > 0.2 significant
SNTA1 = assay: holdup assay, SNTA1 PDZ domain; assay type: binding, human; details: biotinylated PBM-HBc peptide, in duplicates, BI > 0.2 significant
DLG1_2 = assay: holdup assay, DLG1_2 PDZ domain; assay type: binding, human; details: biotinylated PBM-HBc peptide, in duplicates, BI > 0.2 significant
MAGI2 = assay: holdup assay, MAGI2 PDZ domain; assay type: binding, human; details: biotinylated PBM-HBc peptide, in duplicates, BI > 0.2 significant
PTPN3-PDZ [2] = details: previously reported; cited from earlier work
Text: In the present study, we investigated the molecular mechanism of interaction between PTPN3 and HBc. […] We confirmed the interaction by NMR.

[3] = target: T1, PDZ domain of PTPN3 (PTPN3-PDZ), residues 489-597 (human, UniProt P26045 489-597); assay: crystal structure; co-crystal of PTPN3-PDZ with PBM-HBc peptide added in excess; 20 mM HEPES pH 8, 150 mM NaCl, 0.5 mM TCEP; reservoir 20% PEG 3350, 0.2 M NaBr pH 7; 1.86 Å; details: both partners purified
T1 construct: not shown: GST, N-terminal, cleaved
T1 sequence (looked up): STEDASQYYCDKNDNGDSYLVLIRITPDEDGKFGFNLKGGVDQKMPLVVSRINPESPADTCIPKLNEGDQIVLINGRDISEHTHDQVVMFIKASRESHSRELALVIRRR

PTPN3-PDZ [4] = assay: NMR binding of full-length HBc (CLPs) to PTPN3-PDZ; parameters: species or system human; details: 1H,15N HSQC-TROSY, 600 MHz, 20 °C, PTPN3-PDZ 95 μM, PDZ:HBc final ratio 1:19.4
Description: We then tested the complex formation between PTPN3-PDZ and the full-length HBc (Fig. 2c). ^1H, ^15N HSQC-TROSY spectra were recorded on ^15N-labeled PTPN3-PDZ in its free form (red signals in Fig. 2c) and in the presence of the unlabeled HBc full-length protein at different ratios. […] Indeed, wild type (WT) HBc proteins form homodimers and self-assemble into capsids, and the full-length HBc expressed in Escherichia coli mainly assembles into capsid-like particles (CLPs) of 3 to 5 million Da, as measured by analytical ultracentrifugation (AUC) (Fig. 2d). […] The molecular tumbling of PTPN3-PDZ is drastically slowed down when forming high molecular weight complexes with the CLPs, which induced the broadening of the linewidths of the PTPN3-PDZ signals beyond detection. Yet, the TROSY spectra of the complexes did contain a few peaks, which we attributed to regions of PTPN3-PDZ that remained mobile, probably the N-terminal and C-terminal extremities.
The NMR binding experiments between PTPN3-PDZ and full-length HBc as CLPs were performed at 20 °C on a 600-MHz BRUKER Avance III HD spectrometer equipped with a cryoprobe. […] A series of ^1H, ^15N HSQC-TROSY spectra was recorded for different titration points with a ratio PDZ:HBc (mol:mol) 1:0, 1:1.4, 1:5.6, and 1:19.4.

GST-PTPN3-PDZ = assay: GST pull-down assay with GST-PTPN3-PDZ; assay type: binding, human; details: lysate of HeLa S3 cells overexpressing HF-tagged HBc; anti-HA Western blot; GST alone as negative control
Description: To investigate whether the PBM at the end of CTD of HBc is accessible to PTPN3 binding during capsid assembly, a glutathione S-transferase (GST) pull-down in vitro assay was performed with lysates of HeLa S3 cells overexpressing the HA-Flag-tagged either wild-type full-length HBc (HF-HBc WT) or its Y132A mutant (HF-HBc Y132A) that forms dimers but is unable to assemble into capsids[35] (Fig. 3a; Supporting Information Fig. 1). GST protein was used as a negative control. The expression of HF-HBc WT and HF-HBc Y132A in the cell lysates was verified by Western blot using the anti-HA antibody (Fig. 3a, lane 5). We also confirmed, using native Western blot, the presence of capsid in the HeLaS3 HBc WT cell lysate and its absence in the HeLaS3 HBc Y132A cell lysate (Fig. 3b).
The construct PTPN3-PDZ tagged with a N-terminal GST (GST-PTPN3-PDZ) was expressed and purified as previously described[25] without TEV cleavage. The additional TEV cleavage step of GST-PTPN3-PDZ provides the GST alone. […]
After lysate binding, the glutathione-agarose beads were washed four times with binding buffer, pelleted, and resuspended in SDS-PAGE sample buffer for Western blotting. After boiling, the bound proteins were analyzed using 12% SDS-PAGE followed by Western blotting using HRP-conjugated HA Epitope Tag monoclonal antibody (26183-HRP, THERMOFISHER) diluted to 1:2000. […]

In the case of -RRRRSQSRESQC [HBc PBM], the “BI (binding intensity)” value (DLG1_1) is reported as 0,34, the “BI (binding intensity)” value (SNTB1) is reported as 0,54 and the “BI (binding intensity)” value (DLG4_3) is reported as 0,53. For the same molecule, the “BI (binding intensity)” value (STXB4) was 0,47, the “BI (binding intensity)” value (DLG4_1) was 0,43 and the “BI (binding intensity)” value (MAGI3) was 0,78. The “BI (binding intensity)” value (DLG4_2_) was 0,35, the “BI (binding intensity)” value (SYNJ2BP) was 0,43 and the “BI (binding intensity)” value (PTPN4) was 0,58. For the same molecule, the “BI (binding intensity)” value (GIPC1) was 0,85, the “BI (binding intensity)” value (MPDZ) was 0,46 and the “BI (binding intensity)” value (DLG3_2) was 0,36. The “BI (binding intensity)” value (DLG2_1) was 0,35, the “BI (binding intensity)” value (DLG2_2) was 0,38 and the “BI (binding intensity)” value (MAST2) was 0,21. For the same molecule, the “BI (binding intensity)” value (DLG1_3) was 0,34, the “BI (binding intensity)” value (SNX27) was 0,39 and the “BI (binding intensity)” value (SNTB2) was 0,38. For the same molecule, the “number of potential HBc binders containing PDZ domains” value [1] was 28, the “BI (binding intensity)” value (TJP2) was 0,27 and the “BI (binding intensity)” value (MAGI1) was 0,49. For the same molecule, the “BI (binding intensity)” value (InaDl) was 0,29, the “BI (binding intensity)” value (SCRIB) was 0,23 and the “BI (binding intensity)” value (SIPA1L2) was 0,24. The “BI (binding intensity)” value (GIPC2) was 0,31, the “BI (binding intensity)” value (SNTA1) was 0,25 and the “BI (binding intensity)” value (DLG1_2) was 0,40. For the same molecule, the “BI (binding intensity)” value (MAGI2) was 0,51.

In the case of “ETQL [PBM-16E6, PBM of the HPV16 E6 protein, reference compound]”, the KD (PTPN3-PDZ [2]) is given as “a few tens of”.

In the case of “NH2RRRRSQSRESQCCOOH [PBM-HBc, PBM-HBc peptide (NH2…OOH)]”, the KD (PTPN3-PDZ [2]) is listed as “a few tens of”.

B1: PBM-HBc peptide (C-terminal PDZ-binding motif of the hepatitis B virus core protein) (peptide)
peptide: RRRRSQSRESQC
notes: also called PBM of HBc; source: synthetic peptide (Fmoc solid phase, PROTEOGENIX)
B1: binds [3].

B2: full-length HBc: full-length HBc expressed in Escherichia coli mainly assembles into capsid-like particles (CLPs) (protein)
chain: MDIDPYKEFGATVELLSFLPSDFFPSVRDLLDTASALYREALESPEHCSPHHTALRQAILCWGELMTLATWVGVNLEDPASRDLVVSYVNTNMGLKFRQLLWFHISCLTFGRETVIEYLVSFGVWIRTPPAYRPPNAPILSTLPETTVVRRRGRSPRRRTPSPRRRRSQSPRRRRSQSRESQC
For B2, the “effect on TROSY resonances of PTPN3-PDZ” value (PTPN3-PDZ [4]) was “nearly all of the TROSY resonances observed with free PTPN3-PDZ had disappeared”.

B3: HBc WT: HA-Flag-tagged wild-type full-length HBc (protein)
chain: MDIDPYKEFGATVELLSFLPSDFFPSVRDLLDTASALYREALESPEHCSPHHTALRQAILCWGELMTLATWVGVNLEDPASRDLVVSYVNTNMGLKFRQLLWFHISCLTFGRETVIEYLVSFGVWIRTPPAYRPPNAPILSTLPETTVVRRRGRSPRRRTPSPRRRRSQSPRRRRSQSRESQC
In the case of B3, the “binding in GST pull-down” value (GST-PTPN3-PDZ) is reported as “detected only in interaction with GST-PTPN3-PDZ”.
